We go through 31 compounds from patent US20090069319A1, “IMIDAZOPYRIDINE ANALOGS AND THEIR USE AS AGONISTS OF THE WNT-BETA-CATENIN CELLULAR MESSAGING SYSTEM” (Wyeth, priority 2007, published 2009).

This assay is described as follows: Functional Dkk1-LRP5-TCF-Luciferase Assay in U2OS Cells (table columns: A=MAX FOLD Induction/DMSO CONTROL; B=fold induction @ 2.0 uM; C=fold induction @ 20.0 uM). Format: cell-based, Human. The conditions noted are these: Homo sapiens, U2OS; for fold induction at 2 µM: 2.0 uM compound; for fold induction at 20 µM: 20.0 uM compound. The protocol: Biological Evaluation—Functional Dkk1-LRP5-TCF-Luciferase Assay in U2OS Cells
U2OS Human Bone derived cells (Osteosarcoma) are grown in McCoy's 5A Medium (Modified), with L-glutamine (GIBCO Cat No. 16600-082)+1% Pen-Strep+5% FBS) plated at 1×10^7 cells/T175 cm flask. The next day, the cells are co-transfected overnight with the following plasmids: (a) Test reporter (16×TCF-TK-FireFly-Luci), (b) Internal Control Reporter (TK-Renilla-Luci), (c) Wnt3a and (d) Dkk1. GIBCO's Lipofectamine 2000 and OptiMEM were used for the transfection. After a minimum of 4 hr of transfection at 37° C., the plasmid-transfected cells are trypsinized, counted, and suspended in freezing medium (95% FBS+5% DMSO). The reporter cells are frozen at 1×10^7/ml concentrations, aliquoted into 0.5 ml or 2.5 ml/tube and stored at −70° C.
The following day, test compounds are added under HTS setup by Plate Track into 384 well plates (white, TC treated, Falcon plate) such that the final concentration of the compounds in 20 μL/well cell will be 5 μg/ml (final concentration of DMSO=0.25% and final compound concentration=20 μM). Vials of frozen reporter cells are thawed by warming the vial in a 37° C. water bath for 60-120 seconds with some shaking until the cells formed a suspension. The thawed cells are transferred into a cold 50 ml (or larger) tube and mixed well by gentle pipetting. The appropriate amount of cold Phenol Red Free RPMI medium-1640 (GIBCO, Cat # 11835-030) with L-glutamine is added, both with ˜5% FBS (GIBCO-BRL, Cat. # 16000-044), so that 20 μl of the final cell suspension will contain ˜5,000 cells. The cell dilution is done such that the final concentration of FBS was ˜5%. Diluted cells (20 μl) are added into each well in a 384 well plate. The plate is incubated at 37° C. under 5% CO2 for ˜20 h. Bright-Glo substrate, 2.5 μl/well is added, and the Fire Fly Luciferase is measured using VLUX (60 second exposure) immediately after the substrate was added. Test compounds are dissolved in DMSO (100%) and added to specified wells. Raw luciferase signal data obtained as relative luminescence units (RLUs) for the test compounds are normalized to the signal of the mean of the sample reporter cell plate with DMSO.
Active compounds have TCF-luciferase ratios of 2.5 fold or greater over DMSO. All compounds show a signal increase of at least 10% compared to a signal with only DMSO added.
A=MAX FOLD Induction/DMSO CONTROL
B=TCF ACTIVITY/DMSO CONTROL Fold induction @ 2.0 uM C=TCF ACTIVITY/DMSO CONTROL Fold induction @ 20.0 uM

As usually defined, the fold induction is the signal under treatment as a multiple of the control signal. Consider `CC(C)NC(=O)N1CCC(n2c(=O)[nH]c3c(-c4ccc5ccccc5c4)ccnc32)CC1` [N-isopropyl-4-[7-(2-naphthyl)-2-oxo-1,2-dihydro-3H-imidazo[4,5-b]pyridin-3-yl]piperidine-1-carboxamide], for which the fold induction at 2 µM was found to be 1.42 and the fold induction at 20 µM was determined as 1.1.
Take `Cc1nc2c(-c3ccc4ccccc4c3)ccnc2n1[C@H]1CCNC1` [2-methyl-7-(2-naphthyl)-3-[(3S)-pyrrolidin-3-yl]-3H-imidazo[4,5-b]pyridine]: the fold induction at 2 µM was found to be 1.57 and the fold induction at 20 µM stood at 0.4.
On to `Cn1c(=O)n(C2CCNCC2)c2nccc(-c3ccc4ccccc4c3)c21` [1-methyl-7-(2-naphthyl)-3-piperidin-4-yl-1,3-dihydro-2H-imidazo[4,5-b]pyridin-2-one], for which the fold induction at 2 µM turned out to be 1.07.
On the same count and under the same terms, the result for `Cc1ccc(-c2nc3c(-c4ccc5ccccc5c4)ccnc3n2C2CCNCC2)cc1` [2-(4-methylphenyl)-7-(2-naphthyl)-3-piperidin-4-yl-3H-imidazo[4,5-b]pyridine] reads 1.9; that for `Clc1ccc(-c2nc3cc(-c4ccc5ccccc5c4)cnc3n2C2CCNCC2)c(Cl)c1` [2-(2,4-dichlorophenyl)-6-(2-naphthyl)-3-piperidin-4-yl-3H-imidazo[4,5-b]pyridine], 1.04.
As for `Brc1ccccc1-c1nc2c(-c3ccc4ccccc4c3)ccnc2n1C1CCNCC1` [2-(2-bromophenyl)-7-(2-naphthyl)-3-piperidin-4-yl-3H-imidazo[4,5-b]pyridine], the fold induction at 2 µM was found to be 1.6.
Still for that read-out and setting: the result for `c1c[nH]c(-c2nc3c(-c4ccc5ccccc5c4)ccnc3n2C2CCNCC2)c1` [7-(2-naphthyl)-3-piperidin-4-yl-2-(1H-pyrrol-2-yl)-3H-imidazo[4,5-b]pyridine] reads 1.25; that for `c1ccc2cc(-c3ccnc4c3nc(-c3cccc5ncccc35)n4C3CCNCC3)ccc2c1` [5-[7-(2-naphthyl)-3-piperidin-4-yl-3H-imidazo[4,5-b]pyridin-2-yl]quinoline], 1.33; that for `c1ccc2cc(-c3ccnc4c3nc(-c3ccc5c(c3)OCO5)n4C3CCNCC3)ccc2c1` [2-(1,3-benzodioxol-5-yl)-7-(2-naphthyl)-3-piperidin-4-yl-3H-imidazo[4,5-b]pyridine], 1.36.
Turning to `CCNC(=O)N1CCC(n2cnc3c(-c4ccc5ccccc5c4)ccnc32)CC1` [N-ethyl-4-[7-(2-naphthyl)-3H-imidazo[4,5-b]pyridin-3-yl]piperidine-1-carboxamide], the fold induction at 2 µM worked out at 1.52 and the fold induction at 20 µM turned out to be 1.29.
As to `O=[N+]([O-])c1ccccc1-c1nc2cc(-c3ccc4ccccc4c3)cnc2n1C1CCNCC1` [6-(2-naphthyl)-2-(2-nitrophenyl)-3-piperidin-4-yl-3H-imidazo[4,5-b]pyridine], the fold induction at 2 µM was found to be 1.13.
For `FC(F)(F)Oc1cccc(-c2nc3c(-c4ccc5ccccc5c4)ccnc3n2C2CCNCC2)c1` [7-(2-naphthyl)-3-piperidin-4-yl-2-[3-(trifluoromethoxy)phenyl]-3H-imidazo[4,5-b]pyridine], the fold induction at 2 µM amounted to 1.52.
Still for that read-out and setting: with `FC(F)(F)c1cccc(-c2nc3c(-c4ccc5ccccc5c4)ccnc3n2C2CCNCC2)c1` [7-(2-naphthyl)-3-piperidin-4-yl-2-[3-(trifluoromethyl)phenyl]-3H-imidazo[4,5-b]pyridine] the figure was 1.54; with `Cc1ccc(-c2nc3c(-c4ccc5ccccc5c4)ccnc3n2C2CCNCC2)o1` [2-(5-methyl-2-furyl)-7-(2-naphthyl)-3-piperidin-4-yl-3H-imidazo[4,5-b]pyridine], 1.17; with `CCCCc1nc2c(-c3ccc4ccccc4c3)ccnc2n1C1CCNCC1` [2-butyl-7-(2-naphthyl)-3-piperidin-4-yl-3H-imidazo[4,5-b]pyridine], 1.19.
`Cc1cn(-c2ccccc2)c(Cl)c1-c1nc2c(-c3ccc4ccccc4c3)ccnc2n1C1CCNCC1` [2-(2-chloro-4-methyl-1-phenyl-1H-pyrrol-3-yl)-7-(2-naphthyl)-3-piperidin-4-yl-3H-imidazo[4,5-b]pyridine]: the fold induction at 2 µM came out at 1.48.
As for `c1ccc2cc(-c3cnc4c(c3)nc(-c3ccncc3)n4C3CCNCC3)ccc2c1` [6-(2-naphthyl)-3-piperidin-4-yl-2-pyridin-4-yl-3H-imidazo[4,5-b]pyridine], the fold induction at 2 µM was 1.56 and the fold induction at 20 µM is 0.005.
For the compound `Cc1nc2c(-c3ccc4ccccc4c3)ccnc2n1C1CNC1` [3-azetidin-3-yl-2-methyl-7-(2-naphthyl)-3H-imidazo[4,5-b]pyridine], the fold induction at 2 µM is 1.16 and the fold induction at 20 µM is 0.76.
As to `O=[N+]([O-])c1cc(-c2nc3cc(-c4ccc5ccccc5c4)cnc3n2C2CCNCC2)ccc1N1CCOCC1` [2-(4-morpholin-4-yl-3-nitrophenyl)-6-(2-naphthyl)-3-piperidin-4-yl-3H-imidazo[4,5-b]pyridine], the fold induction at 2 µM came out at 1.01.
For `c1ccc2cc(-c3ccnc4c3nc(-c3cc5ccccc5o3)n4C3CCNCC3)ccc2c1` [2-(1-benzofuran-2-yl)-7-(2-naphthyl)-3-piperidin-4-yl-3H-imidazo[4,5-b]pyridine], the fold induction at 2 µM amounted to 1.53 and the fold induction at 20 µM came to 0.01.
Take `Fc1ccccc1-c1nc2c(-c3ccc4ccccc4c3)ccnc2n1C1CCNCC1` [2-(2-fluorophenyl)-7-(2-naphthyl)-3-piperidin-4-yl-3H-imidazo[4,5-b]pyridine]: the fold induction at 2 µM amounted to 1.29.
The same measure, in the same setting: the result for `FC(F)(F)c1ccc(-c2nc3c(-c4ccc5ccccc5c4)ccnc3n2C2CCNCC2)cc1` [7-(2-naphthyl)-3-piperidin-4-yl-2-[4-(trifluoromethyl)phenyl]-3H-imidazo[4,5-b]pyridine] reads 1.28; that for `Fc1cccc(-c2nc3c(-c4ccc5ccccc5c4)ccnc3n2C2CCNCC2)c1F` [2-(2,3-difluorophenyl)-7-(2-naphthyl)-3-piperidin-4-yl-3H-imidazo[4,5-b]pyridine], 1.9.
On to `c1ccc2cc(-c3cnc4c(c3)nc(-c3cccc5ccccc35)n4C3CCNCC3)ccc2c1` [2-(1-naphthyl)-6-(2-naphthyl)-3-piperidin-4-yl-3H-imidazo[4,5-b]pyridine], for which the fold induction at 2 µM was 1.11.
Consider `O=c1[nH]cc(-c2nc3c(-c4ccc5ccccc5c4)ccnc3n2C2CCNCC2)c(=O)[nH]1` [5-[7-(2-naphthyl)-3-piperidin-4-yl-3H-imidazo[4,5-b]pyridin-2-yl]pyrimidine-2,4(1H,3H)-dione], for which the fold induction at 2 µM was 1.94 and the fold induction at 20 µM came to 1.91.
For `c1ccc2cc(-c3cnc4c(c3)nc(C3CCCCC3)n4C3CCNCC3)ccc2c1` [2-cyclohexyl-6-(2-naphthyl)-3-piperidin-4-yl-3H-imidazo[4,5-b]pyridine] the same measures were 1.24 and 0.01.
In the case of `c1ccc2cc(-c3cnc4c(c3)nc(-c3cc5ccccc5o3)n4C3CCNCC3)ccc2c1` [2-(1-benzofuran-2-yl)-6-(2-naphthyl)-3-piperidin-4-yl-3H-imidazo[4,5-b]pyridine], the fold induction at 2 µM turned out to be 1.
For `COc1cc(-c2nc3c(-c4ccc5ccccc5c4)ccnc3n2C2CCNCC2)ccc1O` [2-methoxy-4-[7-(2-naphthyl)-3-piperidin-4-yl-3H-imidazo[4,5-b]pyridin-2-yl]phenol], the fold induction at 2 µM stood at 1.63 and the fold induction at 20 µM worked out at 0.01.
In the case of `c1cncc(-c2nc3c(-c4ccc5ccccc5c4)ccnc3n2C2CCNCC2)c1` [7-(2-naphthyl)-3-piperidin-4-yl-2-pyridin-3-yl-3H-imidazo[4,5-b]pyridine], the fold induction at 2 µM amounted to 1.21.
As to `c1ccc2cc(-c3ccnc4c3nc(-c3ccc5ccccc5n3)n4C3CCNCC3)ccc2c1` [2-[7-(2-naphthyl)-3-piperidin-4-yl-3H-imidazo[4,5-b]pyridin-2-yl]quinoline], the fold induction at 2 µM came to 0.01 and the fold induction at 20 µM worked out at 1.01.
For `c1ccc2cc(-c3ccnc4c3nc(-c3cc5ccccc5s3)n4C3CCNCC3)ccc2c1` [2-(1-benzothien-2-yl)-7-(2-naphthyl)-3-piperidin-4-yl-3H-imidazo[4,5-b]pyridine], the fold induction at 2 µM stood at 1.02.
